# Values of other authors as cited in US7749961B2, “Macrocyclic peptides active against the hepatitis C virus” (Boehringer Ingelheim International GmbH, priority 2004, dated 2010).
# Tested on: hepatitis C virus
# Conditions: two day clinical trial
smiles,measurement,value
COc1ccc2c(O[C@@H]3C[C@H]4C(=O)N[C@]5(C(=O)O)C[C@H]5/C=C\CCCCC[C@H](NC(=O)OC5CCCC5)C(=O)N4C3)cc(-c3csc(NC(C)C)n3)nc2c1 [BILN 2061],reduction of viral loads in patients infected with the hepatitis C virus,effective in rapidly reducing viral loads
